The results in this text go back to ChEMBL document CHEMBL4400545 (Bioorg Med Chem, 2019).

For assay [1], the target named is T1, Sodium- and chloride-dependent GABA transporter 1 (Mus musculus, UniProt P31648). Nature of the assay: Inhibition of mouse GAT-1 expressed in HEK293 cells assessed as decrease in [3H]GABA uptake preincubated for 25 mins followed by [3H]GABA addition and measured after 4 mins by scintillation counting analysis. The class given is cell-based.
For assay [2], the target named is T1, Sodium- and chloride-dependent GABA transporter 1. As to the kind of experiment: Binding affinity to mouse GAT-1 expressed in HEK293 cells after 4 hrs in presence of NO711 by LC-ESI-MS/ms analysis. The class given is cell-based.
In assay [3] the target is Sodium- and chloride-dependent GABA transporter 1 (Mus musculus) (UniProt P31648). Nature of the assay: Inhibition of mouse GAT-1 assessed as percentage of remaining specific binding of NO711 at 1 uM after 4 hrs by LC-ESI-MS/ms analysis relative to control.
For assay [4] the target is unchanged. As to the kind of experiment: Inhibition of mouse GAT-1 assessed as percentage of remaining specific binding of NO711 at 100 nM after 4 hrs by LC-ESI-MS/ms analysis relative to control.

One may read the pIC50 as −log10 of the IC50, conventionally taken in molar units. One may read the pKi as the Ki on a negative log10 scale, so that one unit is a factor of ten.

The structures appear in SMILES notation. pIC50, pKi: −log10 of the molar value.

`O=C(O)C1=CCCN(CCO/N=C/c2ccccc2-c2ccc(Cl)cc2Cl)C1`: the pIC50 in assay [1] was 8.27. Besides, in assay [2], the negative logarithm of the Ki (pKi) is 8.29.

`O=C(O)C1=CCCN(CCO/N=C/c2ccccc2-c2ccc(F)cc2F)C1`: in assay [1], the pIC50 is 7.25. Further, the negative logarithm of the Ki (pKi) in assay [2] is 8.35.

Take `CC(/C=N/OCCN1CCCC(C(=O)O)C1)(CCC#N)c1ccccc1` (racemic): the results for the Activity in assay [3] and in assay [4] were 7% and 48%, respectively.

`COc1ccc(/C=N/OCCN2CCCC(C(=O)O)C2)c2ccccc12` (racemic): the Activity in assay [3] stood at 61%.

On to `Cc1ccc(/C=N/OCCN2CCCC(C(=O)O)C2)c2ccccc12` (racemic), for which, in assay [3], the Activity is 60%.

`Cc1ccccc1-c1ncccc1/C=N/OCCN1CCCC(C(=O)O)C1` (racemic): the Activity in assay [3] came out at 22%.

With `Cc1ccsc1-c1sc(/C=N/OCCN2CCCC(C(=O)O)C2)cc1C` (racemic), the Activity in assay [3] came out at 33%.

For `Cc1noc(-c2ccccc2/C=N/OCCN2CCCC(C(=O)O)C2)n1` (racemic), the Activity in assay [3] was 33%.

Consider `Cc1onc(-c2ccc(Cl)cc2)c1/C=N/OCCN1CCCC(C(=O)O)C1` (racemic), for which the Activity in assay [3] is 7%; in assay [4] it was 48%.

For `O=C(O)C1CCCN(CCO/N=C/C(c2ccccc2)c2ccccc2)C1` (racemic), the Activity in assay [3] is 41%; in assay [4], 20%.

As to `O=C(O)C1CCCN(CCO/N=C/C2CC3C=CC2C3)C1` (racemic), in assay [3], the Activity amounted to 45%.

For the molecule `O=C(O)C1CCCN(CCO/N=C/COCc2ccccc2)C1` (racemic), the Activity in assay [3] is 60%.

With `O=C(O)C1CCCN(CCO/N=C/c2c[nH]c3ncccc23)C1` (racemic), in assay [3], the Activity stood at 45%.

Consider `O=C(O)C1CCCN(CCO/N=C/c2c[nH]nc2-c2ccc(F)cc2)C1` (racemic), for which the Activity in assay [3] amounted to 7%; in assay [4], 48%.

`O=C(O)C1CCCN(CCO/N=C/c2cc(F)ccc2-c2ccccc2)C1` (racemic): the Activity in assay [3] was 58%; in assay [4], 16%.

With `O=C(O)C1CCCN(CCO/N=C/c2cc(F)ccc2-c2ccccc2Cl)C1` (racemic), the Activity in assay [3] stood at 41%; in assay [4], 16%.

With `O=C(O)C1CCCN(CCO/N=C/c2cc(F)ccc2-c2ccccc2F)C1` (racemic), the Activity stood at 42% in assay [3] and 16% in assay [4].

On to `O=C(O)C1CCCN(CCO/N=C/c2cc3c(cc2-c2ccc(Cl)cc2Cl)OCO3)C1` (racemic), for which, in assay [3], the Activity is 19%.

As to `O=C(O)C1CCCN(CCO/N=C/c2cc3c(cc2-c2ccccc2)OCO3)C1` (racemic), the Activity in assay [3] came out at 19%.

In the case of `O=C(O)C1CCCN(CCO/N=C/c2cc3c(cc2-c2ccccc2Cl)OCO3)C1` (racemic), the Activity in assay [3] turned out to be 19%.

`O=C(O)C1CCCN(CCO/N=C/c2cc3c(cc2-c2ccccc2F)OCO3)C1` (racemic): the Activity in assay [3] is 19%.

In the case of `O=C(O)C1CCCN(CCO/N=C/c2ccc(-c3ccc(C(F)(F)F)cc3Cl)o2)C1` (racemic), the Activity in assay [3] was 83%; in assay [4] it was “Below limit of detection”.

Take `O=C(O)C1CCCN(CCO/N=C/c2ccc(-c3ccccc3)cc2)C1` (racemic): the Activity in assay [3] stood at 80%; in assay [4], 20%.

As for `O=C(O)C1CCCN(CCO/N=C/c2ccc(-c3ccccc3OC(F)(F)F)o2)C1` (racemic), the Activity in assay [3] was 84%; in assay [4], “Below limit of detection”.

Take `O=C(O)C1CCCN(CCO/N=C/c2ccc(Br)cn2)C1` (racemic): in assay [3], the Activity was determined as 71%.

Consider `O=C(O)C1CCCN(CCO/N=C/c2ccc(Br)nc2)C1` (racemic), for which, in assay [3], the Activity came to 71%.

In the case of `O=C(O)C1CCCN(CCO/N=C/c2ccc(C#Cc3ccccc3)s2)C1` (racemic), the Activity in assay [3] amounted to 48%.

As for `O=C(O)C1CCCN(CCO/N=C/c2ccc(F)c3ccccc23)C1` (racemic), in assay [3], the Activity was determined as 60%.

`O=C(O)C1CCCN(CCO/N=C/c2ccc(O)c3ccccc23)C1` (racemic): in assay [3], the Activity was 61%.

Regarding `O=C(O)C1CCCN(CCO/N=C/c2ccc3c(c2)Cc2ccccc2-3)C1` (racemic), in assay [3], the Activity was found to be 37%.

For `O=C(O)C1CCCN(CCO/N=C/c2ccc3ccccc3c2)C1` (racemic), the Activity in assay [3] was found to be 61%.

Turning to `O=C(O)C1CCCN(CCO/N=C/c2cccc(-c3ccccc3)c2)C1` (racemic), the Activity is 87% in assay [3] and 20% in assay [4].

As to `O=C(O)C1CCCN(CCO/N=C/c2cccc(Br)n2)C1` (racemic), in assay [3], the Activity amounted to 71%.

On to `O=C(O)C1CCCN(CCO/N=C/c2cccc3c2OCO3)C1` (racemic), for which the Activity in assay [3] amounted to 32%.

In the case of `O=C(O)C1CCCN(CCO/N=C/c2cccc3ccccc23)C1` (racemic), in assay [3], the Activity came out at 61%.

Consider `O=C(O)C1CCCN(CCO/N=C/c2ccccc2-c2c(F)cccc2F)C1` (racemic), for which the Activity in assay [3] was 39%; in assay [4] it was 17%.

On to `O=C(O)C1CCCN(CCO/N=C/c2ccccc2-c2cc(F)ccc2F)C1` (racemic), for which the Activity in assay [3] was determined as 71%; in assay [4], 17%.

Regarding `O=C(O)C1CCCN(CCO/N=C/c2ccccc2-c2ccc(Cl)cc2)C1` (racemic), the values for the Activity entry in assay [3] and in assay [4] were “Below limit of detection” and 38%, respectively.

As to `O=C(O)C1CCCN(CCO/N=C/c2ccccc2-c2ccc(Cl)cc2F)C1` (racemic), the Activity was 24% in assay [3] and 17% in assay [4].

Consider `O=C(O)C1CCCN(CCO/N=C/c2ccccc2-c2ccc(F)cc2)C1` (racemic), for which the figures for the Activity result in assay [3] and in assay [4] were “Below limit of detection” and 38%, respectively.

Consider `O=C(O)C1CCCN(CCO/N=C/c2ccccc2-c2ccc3ccccc3c2)C1` (racemic), for which the Activity is 89% in assay [3] and “Below limit of detection” in assay [4].

As to `O=C(O)C1CCCN(CCO/N=C/c2ccccc2-c2cccc(Cl)c2)C1` (racemic), the values for the Activity entry in assay [3] and in assay [4] were “Below limit of detection” and 38%, respectively.

Take `O=C(O)C1CCCN(CCO/N=C/c2ccccc2-c2cccc(F)c2)C1` (racemic): the Activity result in assay [3] was “Below limit of detection”; in assay [4], 38%.

`O=C(O)C1CCCN(CCO/N=C/c2ccccc2-c2cccc(F)c2F)C1` (racemic): the Activity was determined as 39% in assay [3] and 17% in assay [4].

In the case of `O=C(O)C1CCCN(CCO/N=C/c2ccccc2-c2cccc3ccccc23)C1` (racemic), the Activity in assay [3] stood at 45%.

With `O=C(O)C1CCCN(CCO/N=C/c2ccccc2-c2ccccc2)C1` (racemic), the values for the Activity in assay [3] and in assay [4] were 47% and 20%, respectively.

With `O=C(O)C1CCCN(CCO/N=C/c2ccccc2-c2ccccc2Cl)C1` (racemic), the values for the Activity in assay [3] and in assay [4] were 26% and “Below limit of detection”, respectively.

With `O=C(O)C1CCCN(CCO/N=C/c2ccccc2-c2ccccc2F)C1` (racemic), the Activity in assay [3] is 25%; in assay [4], “Below limit of detection”.

In the case of `O=C(O)C1CCCN(CCO/N=C/c2ccccc2-c2cccnc2)C1` (racemic), the Activity in assay [3] turned out to be 37%.

In the case of `O=C(O)C1CCCN(CCO/N=C/c2ccccc2-c2ccco2)C1` (racemic), the Activity in assay [3] is 32%.

In the case of `O=C(O)C1CCCN(CCO/N=C/c2ccccc2-c2cccs2)C1` (racemic), the Activity in assay [3] turned out to be 7%; in assay [4], 48%.

As for `O=C(O)C1CCCN(CCO/N=C/c2ccccc2-n2cccc2)C1` (racemic), the Activity in assay [3] is 33%.

Turning to `O=C(O)C1CCCN(CCO/N=C/c2ccccc2-n2cccn2)C1` (racemic), the Activity in assay [3] turned out to be 37%.

On to `O=C(O)C1CCCN(CCO/N=C/c2ccccc2Oc2ccccc2)C1` (racemic), for which the Activity in assay [3] is 37%.

In the case of `O=C(O)C1CCCN(CCO/N=C/c2ccccn2)C1` (racemic), the Activity in assay [3] came to 45%.

`O=C(O)C1CCCN(CCO/N=C/c2cccn2-c2ccc(C(F)(F)F)cc2)C1` (racemic): the values for the Activity in assay [3] and in assay [4] were 91% and “Below limit of detection”, respectively.

For `O=C(O)C1CCCN(CCO/N=C/c2cccnc2)C1` (racemic), the Activity in assay [3] came out at 48%.

As for `O=C(O)C1CCCN(CCO/N=C/c2cccnc2-c2ccc(Cl)cc2)C1` (racemic), in assay [3], the Activity worked out at 22%.

As for `O=C(O)C1CCCN(CCO/N=C/c2cccnc2-c2ccc(Cl)cc2Cl)C1` (racemic), the figures for the Activity in assay [3] and in assay [4] were 31% and “Below limit of detection”, respectively.

`O=C(O)C1CCCN(CCO/N=C/c2cccnc2-c2cccc(Cl)c2)C1` (racemic): the Activity in assay [3] came out at 32%.

Turning to `O=C(O)C1CCCN(CCO/N=C/c2cccnc2-c2cccc(F)c2)C1` (racemic), in assay [3], the Activity came to 22%.

For `O=C(O)C1CCCN(CCO/N=C/c2cccnc2-c2ccccc2)C1` (racemic), the Activity in assay [3] is 22%.

On to `O=C(O)C1CCCN(CCO/N=C/c2cccnc2-c2ccccc2Cl)C1` (racemic), for which the Activity in assay [3] was 33%.

With `O=C(O)C1CCCN(CCO/N=C/c2cccnc2-c2ccccc2F)C1` (racemic), the Activity in assay [3] worked out at 32%.

Turning to `O=C(O)C1CCCN(CCO/N=C/c2cccnc2Br)C1` (racemic), in assay [3], the Activity came to 71%.

Regarding `O=C(O)C1CCCN(CCO/N=C/c2ccncc2)C1` (racemic), the Activity in assay [3] was 60%.

Consider `O=C(O)C1CCCN(CCO/N=C/c2csc3ccccc23)C1` (racemic), for which the Activity in assay [3] is 48%.

Take `O=C(O)C1CCCN(CCO/N=C/c2sccc2-c2ccc(F)cc2Cl)C1` (racemic): the Activity in assay [3] was 24%; in assay [4], “Below limit of detection”.

Turning to `O=C(O)C1CCCN(CCO/N=C/c2sccc2-c2ccccc2)C1` (racemic), the Activity in assay [3] is 48%.

For the molecule `Cc1ccsc1C(=CCCN1CCC[C@@H](C(=O)O)C1)c1sccc1C` [TIAGABINE], the negative-log Ki (pKi) in assay [2] is 7.26.
